In patent US20090203705A1, “Spiro Compounds As NPY Y5 Receptor Antagonists” (priority 2008, published 2009):
Structures can show the parent of a compound that is named as a salt.

target: T1, human NPY Y5 receptor (Homo sapiens, UniProt Q15761); test: FLIPR/Ca2+ functional activity at recombinant human NPY Y5 receptor; type: cell-based; details: HEK 293 signal-hNPY Y5/G16z49 cells; inhibition of calcium release by PYY at EC80; Cheng-Prusoff; read-out: fpKi
T1 construct: expressed in transfected cells; host or cells: HEK293 (cell line HEK 293 signal-hNPY Y5/G16z49)
T1 sequence (Q15761 1-445): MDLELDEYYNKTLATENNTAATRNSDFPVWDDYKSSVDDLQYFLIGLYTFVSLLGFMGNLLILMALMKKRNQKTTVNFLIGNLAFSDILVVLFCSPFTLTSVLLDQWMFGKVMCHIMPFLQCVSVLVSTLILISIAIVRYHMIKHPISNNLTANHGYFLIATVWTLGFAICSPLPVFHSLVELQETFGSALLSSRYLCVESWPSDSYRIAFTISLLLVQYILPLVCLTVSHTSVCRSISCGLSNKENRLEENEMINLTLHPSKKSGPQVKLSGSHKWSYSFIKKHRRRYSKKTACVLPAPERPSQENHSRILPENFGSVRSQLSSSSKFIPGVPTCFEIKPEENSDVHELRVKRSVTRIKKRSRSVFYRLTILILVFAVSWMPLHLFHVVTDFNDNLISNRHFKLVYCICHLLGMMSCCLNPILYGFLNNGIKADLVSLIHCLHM
From the text: The functional activity of the compounds of the invention for the NPY Y5 receptor may be determined by the FLIPR/Ca^2+ assay as described below. Such potency is typically calculated from the IC50 obtained in FLIPR experiments as the concentration of a compound necessary to decrease 50% of the calcium release following cells exposure to a concentration of PYY eliciting 80% response (i.e. EC80), and is reported as a “fKi” value calculated by the following equation: […]
where EC80 and EC50 corresponding to the agonist (PYY) concentrations that eliciting 80% and 50% response, respectively (corresponding to the Cheng and Prusoff equation). In the context of the present invention pfKi values (corresponding to the […] of fKi) are used instead of fKi; pfKi results are only estimated to be accurate to about 0.3-0.5.
The functional activity at the human NPY Y5 receptor stably expressed in HEK293 cells was assessed using FLIPR/Ca^2+ methodology (cell line name: HEK 293 signal-hNPY Y5/G16z49). The assay is configured to re-direct receptor-mediated signalling to the calcium release from intracellular stores via the promiscuous Gal 6z49 protein. PYY (peptide YY) is an endogenous agonist and can activate the receptor, thereupon causing an increase in the level of calcium in the cells sensed by Fluo4-AM and measured by FLIPR. Antagonist effects are monitored by the blockade or decrease in calcium release once cells co-expressing hNPY Y5 receptor and Ga16z49 are exposed to a concentration of PYY eliciting 80% response (i.e. EC80). A non-linear, 4 parameter logistic curve-fit of the data generated pIC50 value. Applying the Cheng-Prusoff equation to antagonist concentration-response for inhibition of fixed PYY concentration yielded the fpKi values.
Cells are cultured in DMEM/F12 supplemented with 10% FBS, 2 mM Glutamine, 200 μg/ml hygromycin B and 500 μg/ml G418. The day before a FLIPR experiment, cells are plated out into 384-well Poly-D-Lysine coated FLIPR plates at a density of 200'000 cells/ml corrects to give 10'000 cells per 50 μL per well using medium without antibiotics. On the day of experiment, cells are washed with an assay buffer containing 20 mM HEPES/NaOH, 145 mM NaCl, 5 mM KCl, 1 mM MgCl2, 2 mM CaCl2, 1 g/L D-glucose and 2.5 mM probenecid, pH 7.3 and loaded with 2 μM Fluo-4 AM for 60 min at 37° C. and 5% CO2. The excess of dye solution is removed by washing cells with buffer. Compound solutions, prepared by serially diluting compounds in neat DMSO and then a final 1:50 dilution step in assay buffer added with 0.05% pluronic acid, are added and incubated with the loaded cells for 30 min at 37° C. and 5% CO2.
Cells are then put in the FLIPR for the stimulus addition corresponding to a concentration of PYY eliciting 80% of the response. The response of cells to the agonist is fast and measured for 2 min after PYY addition.

Ki [pM] | Compound
≤ 100 | O=C1O[C@]2(CC[C@H](CNc3ccc(-c4cc(F)cc(F)c4)nn3)CC2)CN1c1cccnn1 [Example 4-3, (Trans)-8-({[6-(3,5-difluorophenyl)-3-pyridazinyl]amino}methyl)-3-(3-pyridazinyl)-1-oxa-3-azaspiro[4.5]decan-2-one Dihydrochloride]
≤ 316 | O=C1O[C@]2(CC[C@H](CNc3ccc(-c4ccccc4F)nn3)CC2)CN1c1cccnc1F [Example 4-7, (Trans)-8-({[6-(2-fluorophenyl)-3-pyridazinyl]amino}methyl)-3-(2-fluoro-3-pyridinyl)-1-oxa-3-azaspiro[4.5]decan-2-one Hydrochloride]
≤ 1000 | O=C1O[C@]2(CC[C@H](CNc3ccc(-c4ccccc4)nn3)CC2)CN1c1cccnn1 [Example 4-38, (Trans)-8-{[(6-phenyl-3-pyridazinyl)amino]methyl}-3-(3-pyridazinyl)-1-oxa-3-azaspiro[4.5]decan-2-one Dihydrochloride]
≤ 100 | Cc1cc(N2C[C@]3(CC[C@@H](CNc4ccc(-c5ccccc5C)nn4)CC3)OC2=O)ccn1 [Example 4-39, (Trans)-8-({[6-(2-methylphenyl)-3-pyridazinyl]amino}methyl)-3-(2-methyl-4-pyridinyl)-1-oxa-3-azaspiro[4.5]decan-2-one Dihydrochloride]
≤ 100 | O=C1O[C@]2(CC[C@H](CNc3ccc(-c4cccc(C(F)(F)F)c4)nn3)CC2)CN1c1cccnn1 [Example 4-40, (Trans)-3-(3-pyridazinyl)-8-[({6-[3-(trifluoromethyl)phenyl]-3-pyridazinyl}amino)methyl]-1-oxa-3-azaspiro[4.5]decan-2-one Hydrochloride]
≤ 100 | O=C1O[C@]2(CC[C@H](CNc3ccc(Oc4ccccc4OC(F)(F)F)nn3)CC2)CN1c1cccnn1 [Example 4-56, (Trans)-3-(3-pyridazinyl)-8-({[6-({2-[(trifluoromethyl)oxy]phenyl}oxy)-3-pyridazinyl]amino}methyl)-1-oxa-3-azaspiro[4.5]decan-2-one]

same assay, conditions: assay not given; towards NPY Y5 receptor

activity at the highest concentration set by the experiment | Compound
don't show activity | Cl.O=C1OC2(CCC(CNc3cc(-c4ccccc4)ccn3)CC2)CN1c1cccnn1 (stereo not drawn) [Example 1-39, (Trans)-8-{[(4-phenyl-2-pyridinyl)amino]methyl}-3-(3-pyridazinyl)-1-oxa-3-azaspiro[4.5]decan-2-one hydrochloride]
don't show activity | Cl.Cl.O=C1OC2(CCC(CNc3ccc(C(F)(F)F)nc3)CC2)CN1c1cccnc1 (stereo not drawn) [Example 1-55, (Trans)-3-(3-pyridinyl)-8-({[6-(trifluoromethyl)-3-pyridinyl]amino}methyl)-1-oxa-3-azaspiro[4.5]decan-2-one Dihydrochloride]
don't show activity | Cl.Cl.O=C1O[C@]2(CC[C@H](CNc3ccc(N4CCOCC4)nc3)CC2)CN1c1ccccn1 [Example 1-57, (Trans)-8-({[6-(4-morpholinyl)-3-pyridinyl]amino}methyl)-3-(2-pyridinyl)-1-oxa-3-azaspiro[4.5]decan-2-one.dihydrochloride]
don't show activity | Cn1ccnc1-c1cnc(NCC2CCC3(CC2)CN(c2ccccn2)C(=O)O3)nc1 (stereo not drawn) [Example 3-6, (Trans)-8-({[5-(1-methyl-1H-imidazol-2-yl)-2-pyrimidinyl]amino}methyl)-3-(2-pyridinyl)-1-oxa-3-azaspiro[4.5]decan-2-one]
don't show activity | O=C1OC2(CCC(CNc3ncc(Br)cn3)CC2)CN1c1ccccn1 (stereo not drawn) [Example 3-7, (Trans)-8-{[(5-bromo-2-pyrimidinyl]amino}methyl)-3-(2-pyridinyl)-1-oxa-3-azaspiro[4.5]decan-2-one]
don't show activity | O=C1OC2(CCC(CNc3ncc(-c4ccnnc4)cn3)CC2)CN1c1ccccn1 (stereo not drawn) [Example 3-9, (Trans)-8-({[5-(4-pyridazinyl)-2-pyrimidinyl]amino}methyl)-3-(2-pyridinyl)-1-oxa-3-azaspiro[4.5]decan-2-one]
don't show activity | Cl.O=C1OC2(CCC(CNc3nccc(OCc4ccccc4)n3)CC2)CN1c1cccnn1 (stereo not drawn) [Example 3-12, (Trans)-8-[({4-[(phenylmethyl)oxy]-2-pyrimidinyl}amino)methyl]-3-(3-pyridazinyl)-1-oxa-3-azaspiro[4.5]decan-2-one hydrochloride]
don't show activity | CC(C)(C)OCCOc1ccc(NCC2CCC3(CC2)CN(c2cccnn2)C(=O)O3)nn1.Cl.Cl (stereo not drawn) [Example 4-10, (Trans)-8-({[6-({2-[(1,1-dimethylethyl)oxy]ethyl}oxy)-3-pyridazinyl]amino}methyl)-3-(3-pyridazinyl)-1-oxa-3-azaspiro[4.5]decan-2-one dihydrochloride]
don't show activity | O=C1OC2(CCC(CNc3ccc(Cl)nn3)CC2)CN1c1ccccn1 (stereo not drawn) [Example 4-12, (Trans)-8-{[(6-chloro-3-pyridazinyl)amino]methyl}-3-(2-pyridinyl)-1-oxa-3-azaspiro[4.5]-decan-2-one]
don't show activity | Cl.O=C1OC2(CCC(CNc3nsc4ccccc34)CC2)CN1c1cccnn1 (stereo not drawn) [Example 5-5, (Trans)-8-[(1,2-benzisothiazol-3-ylamino)methyl]-3-(3-pyridazinyl)-1-oxa-3-azaspiro[4.5]-decan-2-one Hydrochloride]
don't show activity | (Trans)-8-({[4-(1-pyrimidinyl)-2-pyrimidinyl]amino}methyl)-3-(3-pyridazinyl)-1-oxa-3-azaspiro[4.5]decan-2-one Dihydrochloride [Example 3-11]
